# Results as given in article PMC6291527, “A Nanostructured Lipid System to Improve the Oral Bioavailability of Ruthenium(II) Complexes for the Treatment of Infections Caused by Mycobacterium tuberculosis” (Frontiers in Microbiology, 2018).
# What was measured:
# Test in all cases: microbe, parasite or virus in culture
# Format in all cases: cell-based, Mycobacterium tuberculosis
# [1] = system: M. tuberculosis clinical isolate CF100; conditions: for MIC90: Mycobacterium tuberculosis, read-out: MIC90 of the Compounds, isolate CF100; for MIC90 of the Compounds, isolate CF100: REMA, CF100 resistant to INH, NL = not loaded (DMSO), L = loaded into NLS
# [2] = system: M. tuberculosis clinical isolate CF158; conditions: for MIC90: Mycobacterium tuberculosis, read-out: MIC90 of the Compounds, isolate CF158; for MIC90 of the Compounds, isolate CF158: REMA, CF158 resistant to INH and RIF, NL = not loaded (DMSO), L = loaded into NLS
# [3] = system: M. tuberculosis clinical isolate CF169; conditions: for MIC90: Mycobacterium tuberculosis, read-out: MIC90 of the Compounds, isolate CF169; for MIC90 of the Compounds, isolate CF169: REMA, CF169 resistant to INH and RIF, NL = not loaded (DMSO), L = loaded into NLS
Compound,MIC90 [1],MIC90 [2],MIC90 [3],"MIC90 of the Compounds, isolate CF100 [1]","MIC90 of the Compounds, isolate CF158 [2]","MIC90 of the Compounds, isolate CF169 [3]"
"NCC[C@H](O)C(=O)N[C@@H]1C[C@H](N)[C@@H](O[C@H]2O[C@H](CN)[C@@H](O)[C@H](O)[C@H]2O)[C@H](O)[C@H]1O[C@H]1O[C@H](CO)[C@@H](O)[C@H](N)[C@H]1O [AMI, amikacin]",0.7 µg/mL,0.6 µg/mL,0.6 µg/mL,,,
"COc1c(N2CCNC(C)C2)c(F)cc2c(=O)c(C(=O)O)cn(C3CC3)c12 (stereo not shown) [GAT, gatifloxacin]",0.5 µg/mL,0.2 µg/mL,1.2 µg/mL,,,
"NNC(=O)c1ccncc1 [INH, isoniazid]",> 50 µg/mL,> 50 µg/mL,> 50 µg/mL,>50 µg/mL,>50 µg/mL,
NC[C@@H]1O[C@@H](O[C@H]2[C@H](O)[C@@H](O[C@H]3O[C@H](CO)[C@@H](O)[C@H](N)[C@H]3O)[C@H](N)C[C@@H]2N)[C@@H](O)[C@H](O)[C@H]1O [KAN],,,,7.8 µg/mL,2.8 µg/mL,1.5 µg/mL
"CC1COc2c(N3CCN(C)CC3)c(F)cc3c(=O)c(C(=O)O)cn1c23 (stereo not shown) [OFL, ofloxacin]",0.9 µg/mL,0.7 µg/mL,11.5 µg/mL,,,
"CO[C@H]1/C=C/O[C@@]2(C)Oc3c(C)c(O)c4c(O)c(c(/C=N/N5CCN(C)CC5)c(O)c4c3C2=O)NC(=O)/C(C)=C\C=C\[C@H](C)[C@H](O)[C@@H](C)[C@@H](O)[C@@H](C)[C@H](OC(C)=O)[C@@H]1C [RIF, rifampicin]",< 0.195 µg/mL,> 50 µg/mL,> 50 µg/mL,,>50 µg/mL,>50 µg/mL
"Cc1ccnc(-c2cc(C)ccn2)c1.F[P-](F)(F)(F)(F)F.O=C([O-])c1ccccn1.[Ru+2].c1ccc(P(CCCCP(c2ccccc2)c2ccccc2)c2ccccc2)cc1 [SCAR2, [Ru(pic)(dppb)(Me-bipy)]PF6]",,,,5.7 µg/mL,1.6^∗ μg mL^-1,2.6^∗ μg mL^-1
"F[P-](F)(F)(F)(F)F.O=C([O-])c1ccccn1.[Ru+2].c1ccc(P(CCP(c2ccccc2)c2ccccc2)c2ccccc2)cc1.c1ccc(P(CCP(c2ccccc2)c2ccccc2)c2ccccc2)cc1 [SCAR5, cis-[Ru(pic)(dppe)2]PF6]",,,,5.1 µg/mL,2.9^∗ μg mL^-1,2.9^∗ μg mL^-1
[Ru(pic)(dppb)(bipy)]PF6 [SCAR1],,,,10.9 µg/mL,2.6^∗ μg mL^-1,2.9^∗ μg mL^-1
[Ru(pic)(dppb)(phen)]PF6 [SCAR4],,,,5.4 µg/mL,2.7 µg/mL,3.0 µg/mL
[Ru(pic)(dppe)(phen)]PF6 [SCAR7],,,,7.3^∗ μg mL^-1,3.0 µg/mL,4.4 µg/mL
